Results as given in ChEMBL document CHEMBL3390836, “Mannich- and LedererManasse-based analogues of the natural product S-(+)-curcuphenol as cancer proliferation and migration inhibitors” (Medchemcomm, 2012).

Tests used:
Type in all cases: functional
SK-MEL-28 = assay: Cytotoxicity against human SK-MEL-28 cells assessed as cell growth at 10^-6 M after 48 hrs by SRB assay relative to control; conditions: SK-MEL-28, 48 h, read-out: Activity
[1] = Cytotoxicity against human Hs 578T cells assessed as cell growth at 10^-8 M after 48 hrs by SRB assay relative to control; conditions: read-out: Activity
HL-60(TB) = assay: Cytotoxicity against human HL-60(TB) cells assessed as cell growth at 10^-4 M after 48 hrs by SRB assay relative to control; conditions: HL-60, 48 h, read-out: Activity
SNB-19 [2] = assay: Cytotoxicity against human SNB19 cells after 48 hrs by SRB assay; conditions: SNB-19, 48 h
LOX IMVI [3] = assay: Cytotoxicity against human LOXIMVI cells after 48 hrs by SRB assay
SK-MEL-2 = assay: Cytotoxicity against human SK-MEL-2 cells assessed as cell growth at 10^-7 M after 48 hrs by SRB assay relative to control; conditions: SK-MEL-2, 48 h, read-out: Activity
SF-295 [4] = assay: Cytotoxicity against human SF295 cells after 48 hrs by SRB assay; conditions: SF-295, 48 h
MDA-MB-435 = assay: Cytotoxicity against human MDA-MB-435 cells assessed as cell growth at 10^-6 M after 48 hrs by SRB assay relative to control; conditions: MDA-MB-435, 48 h, read-out: Activity
[5] = Cytotoxicity against human OVCAR8 cells assessed as cell growth at 10^-4 M after 48 hrs by SRB assay relative to control; conditions: OVCAR-8, 48 h, read-out: Activity
[6] = Cytotoxicity against human NCI-ADR-RES cells assessed as cell growth at 10^-7 M after 48 hrs by SRB assay relative to control; conditions: read-out: Activity
COLO 205 [7] = assay: Cytotoxicity against human COLO205 cells assessed as cell growth at 10^-6 M after 48 hrs by SRB assay relative to control; conditions: COLO 205, 48 h, read-out: Activity
COLO 205 [8] = assay: Cytotoxicity against human COLO205 cells assessed as cell growth at 10^-7 M after 48 hrs by SRB assay relative to control; conditions: COLO 205, 48 h, read-out: Activity
HCC 2998 = assay: Cytotoxicity against human HCC2998 cells assessed as cell growth at 10^-7 M after 48 hrs by SRB assay relative to control; conditions: HCC 2998, 48 h, read-out: Activity
HT-29 = assay: Cytotoxicity against human HT-29 cells assessed as cell growth at 10^-7 M after 48 hrs by SRB assay relative to control; conditions: HT-29, 48 h, read-out: Activity
A498 = assay: Cytotoxicity against human A498 cells assessed as cell growth at 10^-4 M after 48 hrs by SRB assay relative to control; conditions: A498, 48 h, read-out: Activity
786-0 = assay: Cytotoxicity against human 786-0 cells assessed as cell growth at 10^-8 M after 48 hrs by SRB assay relative to control; conditions: 786-0, 48 h, read-out: Activity
[9] = Cytotoxicity against human HCT15 cells assessed as cell growth at 10^-6 M after 48 hrs by SRB assay relative to control; conditions: HCT-15, 48 h, read-out: Activity
RXF 393 = assay: Cytotoxicity against human RXF393 cells assessed as cell growth at 10^-6 M after 48 hrs by SRB assay relative to control; conditions: RXF 393, 48 h, read-out: Activity
SNB-19 [10] = assay: Cytotoxicity against human SNB19 cells assessed as cell growth at 10^-7 M after 48 hrs by SRB assay relative to control; conditions: SNB-19, 48 h, read-out: Activity
MDA-MB-231 = assay: Cytotoxicity against human MDA-MB-231 cells assessed as cell growth at 10^-4 M after 48 hrs by SRB assay relative to control; conditions: MDA-MB-231, 48 h, read-out: Activity
[11] = Cytotoxicity against human OVCAR4 cells assessed as cell growth at 10^-6 M after 48 hrs by SRB assay relative to control; conditions: OVCAR-4, 48 h, read-out: Activity
ACHN = assay: Cytotoxicity against human ACHN cells after 48 hrs by SRB assay
[12] = Cytotoxicity against human HCT116 cells after 48 hrs by SRB assay; conditions: HCT-116, 48 h
SF-295 [13] = assay: Cytotoxicity against human SF295 cells assessed as cell growth at 10^-8 M after 48 hrs by SRB assay relative to control; conditions: SF-295, 48 h, read-out: Activity
LOX IMVI [14] = assay: Cytotoxicity against human LOXIMVI cells assessed as cell growth at 10^-8 M after 48 hrs by SRB assay relative to control; conditions: read-out: Activity
U-251 = assay: Cytotoxicity against human U251 cells after 48 hrs by SRB assay; conditions: U-251, 48 h
MOLT-4 = assay: Cytotoxicity against human MOLT4 cells assessed as cell growth at 10^-6 M after 48 hrs by SRB assay relative to control; conditions: MOLT-4, 48 h, read-out: Activity
SN12C = assay: Cytotoxicity against human SN12C cells assessed as cell growth at 10^-8 M after 48 hrs by SRB assay relative to control; conditions: read-out: Activity
NCI-H460 = assay: Cytotoxicity against human NCI-H460 cells assessed as cell growth at 10^-7 M after 48 hrs by SRB assay relative to control; conditions: NCI-H460, 48 h, read-out: Activity
SK-MEL-5 = assay: Cytotoxicity against human SK-MEL-5 cells assessed as cell growth at 10^-6 M after 48 hrs by SRB assay relative to control; conditions: SK-MEL-5, 48 h, read-out: Activity
HOP-62 = assay: Cytotoxicity against human HOP62 cells after 48 hrs by SRB assay; conditions: HOP-62, 48 h
MCF7 = assay: Cytotoxicity against human MCF7 cells after 48 hrs by SRB assay; conditions: MCF7, 48 h
[15] = Cytotoxicity against human NCI-ADR-RES cells assessed as cell growth at 10^-6 M after 48 hrs by SRB assay relative to control; conditions: read-out: Activity
IGROV-1 = assay: Cytotoxicity against human IGROV1 cells after 48 hrs by SRB assay; conditions: IGROV-1, 48 h
SF-295 [16] = assay: Cytotoxicity against human SF295 cells assessed as cell growth at 10^-4 M after 48 hrs by SRB assay relative to control; conditions: SF-295, 48 h, read-out: Activity
[17] = read-out: LC50 (the source's name)

SMILES: COc1ccc(CCN2COc3c([C@@H](C)CCC=C(C)C)ccc(C)c3C2)cc1OC
- growth at 1 µM (SK-MEL-28): 99%
- growth at 0.01 µM [1]: 78%
- growth at 100 µM (HL-60(TB)): -5%
- GI50 (SNB-19 [2]): 12.1 µM
- TGI (SNB-19 [2]): 42.8 µM
- CC50 (SNB-19 [2]; [17]): > 100 µM
- GI50 (LOX IMVI [3]): 1.77 µM
- LC50 (concentration killing 50% of cells) (LOX IMVI [3]): 7.96 µM
- TGI (LOX IMVI [3]): 3.75 µM
- growth at 0.1 µM (SK-MEL-2): 85%
- GI50 (SF-295 [4]): 2.02 µM
- TGI (SF-295 [4]): 6.56 µM
- CC50 (SF-295 [4]; [17]): 29 µM
- growth at 1 µM (MDA-MB-435): 96%
- growth at 100 µM [5]: -54%
- growth at 0.1 µM [6]: 99%
- growth at 1 µM (COLO 205 [7]): 100%
- growth at 0.1 µM (COLO 205 [8]): 103%
- growth at 0.1 µM (HCC 2998): 83%
- growth at 0.1 µM (HT-29): 93%
- growth at 100 µM (A498): -93%
- growth at 0.01 µM (786-0): 101%
- growth at 1 µM [9]: 90%
- growth at 1 µM (RXF 393): 76%
- growth at 0.1 µM (SNB-19 [10]): 96%
- growth at 100 µM (MDA-MB-231): -91%
- growth at 1 µM [11]: 85%
- GI50 (ACHN): 6.11 µM
- LC50 (concentration killing 50% of cells) (ACHN): 48.1 µM
- TGI (ACHN): 20.2 µM
- GI50 [12]: 2.17 µM
- TGI [12]: 4.94 µM
- CC50 [12, 17]: 13.3 µM
- growth at 0.01 µM (SF-295 [13]): 81%
- growth at 0.01 µM (LOX IMVI [14]): 87%
- GI50 (U-251): 1.91 µM
- LC50 (U-251): 11.2 µM
- TGI (U-251): 4.47 µM
- growth at 1 µM (MOLT-4): 85%
- growth at 0.01 µM (SN12C): 86%
- growth at 0.1 µM (NCI-H460): 100%
- growth at 1 µM (SK-MEL-5): 90%
- GI50 (HOP-62): 1.86 µM
- LC50 (HOP-62): 7.05 µM
- TGI (HOP-62): 36.2 µM
- GI50 (MCF7): 3.29 µM
- TGI (MCF7): 11 µM
- CC50 (MCF7; [17]): 36.3 µM
- growth at 1 µM [15]: 96%
- GI50 (IGROV-1): 1.08 µM
- LC50 (concentration killing 50% of cells) (IGROV-1): 12.7 µM
- TGI (IGROV-1): 3.52 µM
- growth at 100 µM (SF-295 [16]): -87%
